Assay results: BindingDB's records for doi:10.1016/0960-894X(96)00067-4 (1996)

Experiment: Binding affinity towards sigma receptor in guinea pig brain membrane was determined by using [3H]DTG as the radioligand

## OC12C3C4CC5C6C4C1C6C(C53)N2Cc1cccc(Br)c1 (stereo unspecified) [11-(3-bromobenzyl)-11-azahexacyclo[5.4.1.02,6.03,10.04,8.09,12]dodecan-1-ol]
  Ki: 109 nM
